In PubChem BioAssay AID1963846 (Molecular Pharmacology Branch, DTP, NCI, 2024):
Several values for one entry are separate records, joined by “and”; a condition that tells them apart may be missing. Equal entries are not always repeated.

Tested on: 454973-116-R2-J3-PDC complex spheroid viability
Assay: Anticancer human tumor 454973-116-R2-J3-PDC patient-derived pancreatic carcinoma cell line growth inhibition [POLQ]
Details: for viability, T/C: stronger effect = lower value
Description: Multicellular complex tumor spheroid response to Polymerase (POL) inhibitors (novobiocin, ART-558, RP6685) in combination with a variety of drugs and investigational agents in selected tumor cell lines
The POL inhibitors (novobiocin, ART-558, and RP6685) were evaluated both individually and in combination with standard of care and investigational anticancer small molecules within a complex spheroid model of solid tumors. . Complex spheroids include a stromal component modeled by human endothelial cells (HUVEC) and fibroblasts modeled by human mesenchymal stem cells (MSCs). The concentration ranges selected for each drug and investigational agent were based upon clinically achievable concentrations if the clinical Cmax of the agent was known.
Compounds. The drugs and investigational agents: novobiocin (NSC847541), ART-558 (NSC835418), RP-6685 (NSC848927), peposertib (NSC802822), ceralasertib (NSC780249), elimusertib (NSC800525), camonsertib (NSC841442), AZD-1390 (NSC803789), olaparib (NSC753686), talazoparib (NSC767125), rucaparib (NSC756644), sotorasib (NSC818433), MRTX-1133 (NSC836407), SN-38 (NSC673596), topotecan (NSC609699), epotoside (NSC141540), doxorubicin (NSC123127), gemcitabine (NSC613327), 5-fluorouracil (NSC19893), paclitaxel (NSC125973), vemurafenib (NSC761431), MSA-2 (NSC828583), SN-011 (NSC837082), adavosertib (NSC754352), prexasertib (NSC758257), carboplatin (NSC241240) and oxaliplatin (NSC266046), were obtained from the National Cancer Institute (NCI) Developmental Therapeutics Program Chemical Repository (21). The FDA-approved anticancer drug set is available from the Developmental Therapeutics Program at https://dtp.cancer.gov/organization/dscb/obtaining/. […] The stock solutions were prepared in dimethyl sulfoxide (DMSO, Sigma-Aldrich, St. Louis, MO, cat. D2650), except for the platinum compounds which were prepared in saline (Quality Biological, Gaithersburg, MD, cat. 114-055-101), at 800-fold the tested concentration and stored at -70 degrees C prior to their use. All drugs and investigational agents were tested over a range starting from a high concentration at or near the clinical Cmax and decreasing in half-log increments. If the clinical Cmax for an agent had not been determined, the highest concentration tested was 10 microM, except for SN-38, which was tested at a high concentration of 1 microM.
Cell Culture. All cells were maintained in an incubator at 37 degrees C and 5% CO2 with 95% humidity. The PDC lines were cultured according to standard operating procedures established by the NCI PDMR (https://pdmr.cancer.gov). Table 3 of the manuscript, lists the cell lines along with the number of the three cell types plated to form the mct-spheroids and media for tumor cell growth. After thawing, all PDC lines, except 997537-175-T-J1-PDC and 415267-285-R-J2-PDC, were cultured in Matrigel-coated flasks prepared with a working solution of 1X Ham's F-12 nutrient mix, without supplementation (Thermo Fisher Scientific, cat. 11765054), 100 U/mL penicillin-streptomycin (Thermo Fisher Scientific, cat. 15140122), and 2.5% Matrigel (Corning Inc., Corning, NY, cat. 354248) for the first three passages. The two PDC lines 997537-175-T-J1-PDC and 415267-285-R-J2-PDC were cultured on uncoated flasks. The 857933-349-R-J2-PDC line was cultured in 6C/Colon 1B media containing advanced DMEM/F-12 (Thermo Fisher Scientific, cat. 12634028), 10 mM HEPES (Thermo Fisher Scientific, cat. 15630080), 1X GlutaMAX supplement (Thermo Fisher Scientific, cat. 35050061), 0.1 mg/mL primocin (InvivoGen, San Diego, CA, cat. ant-pm-2), 10% defined fetal bovine serum, heat inactivated (HyClone Laboratories Inc., Logan, UT, cat. SH30070.03HI), 50% L-WRN conditioned media (ATCC, cat. CRL-3276), 1.25 mM N-Acetyl-L-cysteine (Sigma-Aldrich, cat. A9165), 10 mM nicotinamide (Sigma-Aldrich, cat. N0636), 1X B-27 supplement (Thermo Fisher Scientific, cat. 17504044), 1X N-2 supplement (Thermo Fisher Scientific, cat. […]
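Also: spheroids exposed to drugs for seven days before measurement.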
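For viability, T/C in this document: percent viability relative to DMSO vehicle control wells taken as 100%.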

Question: `CC(=O)O[C@H]1C(=O)[C@@]2(C)[C@H]([C@H](OC(=O)c3ccccc3)[C@]3(O)C[C@H](OC(=O)[C@H](O)[C@@H](NC(=O)c4ccccc4)c4ccccc4)C(C)=C1C3(C)C)[C@]1(OC(C)=O)CO[C@@H]1C[C@@H]2O` + COC1C(OC(N)=O)C(O)C(Oc2ccc3c(O)c(NC(=O)c4ccc(O)c(CC=C(C)C)c4)c(=O)oc3c2C)OC1(C)C was tested. Which IC50 (curve of first compound, second compound 0.0316 µM) did it give?
Answer: < 9.49 nM

Question: What about the IC50 (curve of first compound, second compound 0.1 µM) of the same compound?
Answer: < 9.49 nM

Question: And the IC50 (curve of first compound, second compound 0.316 µM)?
Answer: < 9.49 nM

Question: And the IC50 (curve of first compound, second compound 1 µM)?
Answer: < 9.49 nM

Question: What about the IC50 (curve of first compound, second compound 3.16 µM) of the same compound?
Answer: < 9.49 nM

Question: What about the IC50 (curve of first compound, second compound 10 µM) of the same compound?
Answer: < 9.49 nM

Question: And the viability, T/C (second compound 0.0316 µM, first compound 0.00949 µM)?
Answer: 11.9%

Question: And the viability, T/C (second compound 0.0316 µM, first compound 0.03 µM)?
Answer: 7.88%

Question: And the viability, T/C (second compound 0.0316 µM, first compound 0.0949 µM)?
Answer: 6.54%

Question: And the viability, T/C (second compound 0.0316 µM, first compound 0.3 µM)?
Answer: 5.33%

Question: What about the viability, T/C (second compound 0.0316 µM, first compound 0.949 µM) of the same compound?
Answer: 6.41%

Question: What about the viability, T/C (second compound 0.0316 µM, first compound 3 µM) of the same compound?
Answer: 7.66%

Question: And the viability, T/C (second compound 0.1 µM, first compound 0.00949 µM)?
Answer: 12.8%

Question: What about the viability, T/C (second compound 0.1 µM, first compound 0.03 µM) of the same compound?
Answer: 5.37%

Question: What about the viability, T/C (second compound 0.1 µM, first compound 0.0949 µM) of the same compound?
Answer: 5.19%

Question: What about the viability, T/C (second compound 0.1 µM, first compound 0.3 µM) of the same compound?
Answer: 5.57%

Question: And the viability, T/C (second compound 0.1 µM, first compound 0.949 µM)?
Answer: 5.27%

Question: And the viability, T/C (second compound 0.1 µM, first compound 3 µM)?
Answer: 3.86%

Question: And the viability, T/C (second compound 0.316 µM, first compound 0.00949 µM)?
Answer: 10.7%

Question: What about the viability, T/C (second compound 0.316 µM, first compound 0.03 µM) of the same compound?
Answer: 5.28%

Question: And the viability, T/C (second compound 0.316 µM, first compound 0.0949 µM)?
Answer: 6.4%

Question: And the viability, T/C (second compound 0.316 µM, first compound 0.3 µM)?
Answer: 4.53%

Question: And the viability, T/C (second compound 0.316 µM, first compound 0.949 µM)?
Answer: 6.27%

Question: And the viability, T/C (second compound 0.316 µM, first compound 3 µM)?
Answer: 5.12%

Question: What about the viability, T/C (second compound 1 µM, first compound 0.00949 µM) of the same compound?
Answer: 13.2%

Question: What about the viability, T/C (second compound 1 µM, first compound 0.03 µM) of the same compound?
Answer: 5.82%

Question: And the viability, T/C (second compound 1 µM, first compound 0.0949 µM)?
Answer: 6.61%

Question: And the viability, T/C (second compound 1 µM, first compound 0.3 µM)?
Answer: 5.98%

Question: And the viability, T/C (second compound 1 µM, first compound 0.949 µM)?
Answer: 5.03%

Question: And the viability, T/C (second compound 1 µM, first compound 3 µM)?
Answer: 5.86%

Question: And the viability, T/C (second compound 3.16 µM, first compound 0.00949 µM)?
Answer: 11.1%

Question: And the viability, T/C (second compound 3.16 µM, first compound 0.03 µM)?
Answer: 7.33%

Question: And the viability, T/C (second compound 3.16 µM, first compound 0.0949 µM)?
Answer: 4.63%

Question: What about the viability, T/C (second compound 3.16 µM, first compound 0.3 µM) of the same compound?
Answer: 3.97%

Question: And the viability, T/C (second compound 3.16 µM, first compound 0.949 µM)?
Answer: 3.87%

Question: And the viability, T/C (second compound 3.16 µM, first compound 3 µM)?
Answer: 4.77%

Question: And the viability, T/C (second compound 10 µM, first compound 0.00949 µM)?
Answer: 12.8%

Question: And the viability, T/C (second compound 10 µM, first compound 0.03 µM)?
Answer: 4.79%

Question: What about the viability, T/C (second compound 10 µM, first compound 0.0949 µM) of the same compound?
Answer: 7.63%

Question: What about the viability, T/C (second compound 10 µM, first compound 0.3 µM) of the same compound?
Answer: 5.47%

Question: What about the viability, T/C (second compound 10 µM, first compound 0.949 µM) of the same compound?
Answer: 3.92%

Question: What about the viability, T/C (second compound 10 µM, first compound 3 µM) of the same compound?
Answer: 5.39%

Question: For `Nc1ccc(C#CCN(C(=O)Cc2ncc(C(F)(F)F)cc2C(F)(F)F)c2ccc(F)cc2)nn1`, which viability, T/C (compound 0.0316 µM) is on record?
Answer: 109% [middle of 13 runs]

Question: What about the viability, T/C (compound 0.1 µM) of the same compound?
Answer: 106% [middle of 13 runs]

Question: And the viability, T/C (compound 0.316 µM)?
Answer: 107% [middle of 13 runs]

Question: What about the viability, T/C (compound 1 µM) of the same compound?
Answer: 104% [middle of 13 runs]

Question: And the viability, T/C (compound 3.16 µM)?
Answer: 105% [middle of 13 runs]

Question: What about the viability, T/C (compound 10 µM) of the same compound?
Answer: 112% [middle of 13 runs]

Question: And the IC50 (compound alone, run of 11/06/2023)?
Answer: > 10000 nM

Question: For `COc1ccc([C@@H](O)c2cc(-c3ncnc4cc(N5CCOCC5)ccc34)c(F)cc2Cl)nn1`, which viability, T/C (compound 0.0316 µM) is on record?
Answer: 110% and 102% and 101%

Question: And the viability, T/C (compound 0.1 µM)?
Answer: 102% and 96.8% and 98.7%

Question: And the viability, T/C (compound 0.316 µM)?
Answer: 104% and 102% and 94.2%

Question: What about the viability, T/C (compound 1 µM) of the same compound?
Answer: 92.9% and 83.8% and 93%

Question: What about the viability, T/C (compound 3.16 µM) of the same compound?
Answer: 76% and 75.2% and 80.2%

Question: What about the viability, T/C (compound 10 µM) of the same compound?
Answer: 52.7% and 56.2% and 53.7%

Question: What about the IC50 (curve of compound) of the same compound?
Answer: > 10000 nM
